Experimental data published in patent US20070092587A1, “Extract from plant of japanese parsley family and process for producing the same” (priority 2004, published 2007).

Experiments:
[1] = system: mature adipocytes (3T3-L1 cells); experiment: Enhancing action on glucose uptake (2-deoxyglucose uptake) into mature adipocytes; type: cell-based; settings: insulin 1 μg/mL positive control, compared to negative control
Experimental: The induction of differentiation into mature adipocytes was carried out by partially modifying the method of Rubin C. S. et al. 3T3-L1 cells were suspended in a 10% fetal bovine serum-containing Dulbecco's modified Eagle's medium containing 200 μM ascorbic acid so as to have a density of 4×10^3 cells/mL, and the suspension was put in each well of a 12-well microtiter plate in an amount of 2 mL per well. The cells were cultured at 37° C. for 7 days in the presence of 5% carbon dioxide gas. On the seventh day, the medium was exchanged with 2 mL of a 10% fetal bovine serum-containing Dulbecco's modified Eagle's medium containing 200 μM ascorbic acid, 0.25 μM dexamethasone, 10 μg/mL insulin and 0.5 mM 3-isobutyl-1-methylxanthine (manufactured by Nacalai Tesque, Inc., 19624-44). After 45 hours, the medium was exchanged with 2 mL of a 10% fetal bovine serum-containing Dulbecco's modified Eagle's medium containing 200 μM ascorbic acid and 5 μg/mL insulin. The medium was exchanged on after 2 days and 4 days, and the cells were cultured for 7 days, to give mature adipocytes.
As the evaluation of enhancing action on glucose uptake, and also as the evaluation of insulin-mimetic action, the amount of 2-deoxyglucose uptake into mature adipocytes stimulated with the sample ([…]) in the adipocytes was determined.
After the termination of the culture, the medium was removed, and the cells were washed twice with a 0.1% (w/v) bovine serum albumin (manufactured by Sigma, A8022)-containing Dulbecco's modified Eagle's medium. Thereafter, 1 mL of the […] ethanol solution at a final concentration of 0.1%, 0.067%, or 0.022%, […] solution at a final concentration of 0.2%, 0.067%, or 0.022%, […] ethanol solution or the dimethyl sulfoxide solution of the extract from the root portion of Angelica keiskei koidz. with the 100% ethanol so as to have a final concentration of 0.067% or 0.022%, each extract being prepared in Example 4, was put to each well. The cells were cultured overnight at 37° C. in the presence of 5% carbon dioxide gas. Here, a group without addition of the sample was set as a negative control. After the overnight culture, the cells were washed twice with a HEPES buffered saline (140 mM NaCl, 5 mM KCl, 2.5 mM MgSO4, 1 mM CaCl2, 20 mM HEPES-Na (pH 7.4)), and 0.9 mL of the […] ethanol solution at a final concentration of 0.1%, 0.067%, or 0.022%, […] solution at a final concentration of 0.2%, 0.067%, or 0.022%, […] ethanol solution or the dimethyl sulfoxide solution of the extract from the root portion of Angelica keiskei koidz. with the 100% ethanol so as to have a final concentration of 0.067% or 0.022%, was added thereto. The cells were cultured at 37° C. for 75 minutes. At the point when 45 minutes passed, there was set in a well without addition of the sample a group with addition of insulin so as to have a final concentration of 1 μg/mL as a positive control. Thereafter, 100 μL of a HEPES buffered saline containing 0.5 μCi/mL 2-deoxy-[1,2-^3H(N)]-glucose (manufactured by PerkinElmer Life Sciences Inc., NET549A) and 1 mM 2-deoxyglucose (manufactured by Nacalai Tesque, Inc., 10722-11) was added thereto, and the cells were further cultured at 37° C. for 10 minutes. […] The radioactivity was determined with a liquid scintillation counter LS6500 (manufactured by Beckmann) using 25 μl of the supernatant with Ultima Gold (manufactured by PerkinElmer Life Sciences Inc., 6013329) as a scintillation cocktail. […]

[2] = system: Preadipocyte cell line 3T3-L1; experiment: Induction of differentiation into adipocytes (amount of triglyceride biosynthesis); type: cell-based; settings: for induction of biosynthesis of triglyceride (inducing action on differentiation into mature adipocytes): isolated compounds at final 1-30 μM, seven days after addition
Experimental: The induction of differentiation into adipocytes was carried out by partially modifying the method of Rubin C. S. et al. (J. Biol. Chem., Vol. 253, No. 20, p7570-7578 (1978)). Preadipocyte cell line 3T3-L1 (ATCC CCL-92.1) was suspended in a 10% fetal bovine serum (manufactured by GIBCO)-containing Dulbecco's modified Eagle's medium (manufactured by Sigma, D6046) containing 200 μM ascorbic acid (hereinafter referred to as A-D-MEM medium) so as to have a density of 4×10^3 cells/mL, and the suspension was put in each well of a 12-well microtiter plate in an amount of 2 mL per well. The cells were cultured at 37° C. for 7 days in the presence of 5% carbon dioxide gas. The medium was exchanged with the same medium on the second day and the fourth day. On the seventh day, the medium was exchanged with A-D-MEM medium containing 0.25 μM dexamethasone. […] Here, there were set a group with addition of 4 μL of a 5 mg/mL aqueous solution of insulin (manufactured by TAKARA BIO INC.) as a positive control, and a group with addition of dimethyl sulfoxide as a negative control. After 45 hours, the medium was exchanged with A-D-MEM medium. […] The cells were cultured for additional 7 days.
The amount of triglyceride in the adipocytes was determined as an index for inducing differentiation into matured adipocytes, and as evaluation of insulin-mimetic action. After the termination of the culture, the medium was removed, and the cells were washed twice with a phosphate buffered saline. One milliliter of a solvent of hexane: isopropanol=3:2 was added thereto. The mixture was allowed to stand at room temperature for 30 minutes, and thereafter the supernatant was collected. The procedures were repeated again, and 2 mL of the resulting supernatant was concentrated to dryness. The precipitate was dissolved in 100 μL of isopropanol, and thereafter the amount of triglyceride contained in 10 μL of the resulting solution was determined with Triglyceride E-Test (manufactured by Wako Pure Chemical Industries, Ltd., code 432-40201). All of the determinations were carried out twice.
Specifically, as a sample, there was set a group with addition of the dimethyl sulfoxide solution of the extract from the root portion of Angelica keiskei koidz. with the 40% aqueous ethanol solution at a final concentration of 0.1% or 0.033%, the dimethyl sulfoxide solution of the extract from the root portion of Angelica keiskei koidz. with the 50% aqueous ethanol solution at a final concentration of 0.033% or 0.011%, the dimethyl sulfoxide solution of the extract from the root portion of Angelica keiskei koidz. with the 70% aqueous ethanol solution at a final concentration of 0.022%, the dimethyl sulfoxide solution of the extract from the root portion of Angelica keiskei koidz. with the 60% or 80% aqueous ethanol solution or the dimethyl sulfoxide solution of the extract with the 100% ethanol so as to have a final concentration of 0.067% or 0.022%, respectively, to each well. Here, there were set a group with addition of 4 μL of a 5 mg/mL aqueous solution of insulin (manufactured by TAKARA BIO INC.) as a positive control, and a group with addition of dimethyl sulfoxide as a negative control. Thereafter, the medium and the sample were exchanged in the same manner as in the method described in Example 5, and after seven days from the addition of the sample, the amount of triglyceride in the adipocytes was determined.
Here, there were set a group with addition of 4 μL of a 5 mg/mL aqueous solution of insulin (manufactured by TAKARA BIO INC.) as a positive control, and a group with addition of dimethyl sulfoxide as a negative control. Thereafter, the medium and the sample were exchanged in the same manner as in the method described in Example 5, and after seven days from the addition of the sample, the amount of triglyceride in the adipocytes was determined.

[3] = target: T1, human muscle cell-derived aldose reductase (Homo sapiens, UniProt P15121); experiment: Inhibitory action for aldose reductase (change in NADPH absorbance at 340 nm, methylglyoxal substrate); type: biochemical
T1 construct: purchased Wako Pure Chemical Industries, Ltd
Experimental: Inhibitory action for aldose reductase of the extract from the root portion of Angelica keiskei koidz. was determined in accordance with the following method. As a sample, 20 μL of a 100 mM methylglyoxal solution was added to 10 μL of each of the kinds of ethanol extracts from the root portion of Angelica keiskei koidz. prepared in Example 4, and 10 μL of the water extract from the root portion of Angelica keiskei koidz. prepared in Preparation Example 1 (a solution prepared by dissolving the extract in a 50% aqueous dimethyl sulfoxide solution), 100 μL of 0.2 M phosphate buffer (pH 6.2), 20 μL of 1 mM NADPH (phosphate buffer), and 10 μL of a human muscle cell-derived aldose reductase solution (0.1 U/mL, manufactured by Wako Pure Chemical Industries, Ltd., phosphate buffer). For a period of 180 seconds after 30 seconds passed, the change in absorbance of NADPH at 340 nm was determined. As a negative control, a 50% aqueous dimethyl sulfoxide solution was used in place of the sample. Also, the absorbance was determined using distilled water as a blank solution for each sample in place of the methylglyoxal solution. The determination values were expressed as an average of two experimental values. The inhibitory ratio (%) for aldose reductase was calculated in accordance with the following formula: Inhibitory Ratio (%)=[1−(ΔAs−ΔAsb)/(ΔAc−ΔAcb)]×100, wherein ΔAs and ΔAc show a change in the absorbance of each of the sample solution and the negative control solution per minute; and ΔAsb and ΔAcb show a change in the absorbance of the blank solutions for the sample solution and the negative control solution per minute.
The inhibitory activity for aldose reductase of the extract from the leaf and stem portions of Angelica keiskei koidz. prepared in Example 3 was determined in the same manner as in Example 8.

aldose reductase = aldose reductase (Homo sapiens, UniProt P15121); settings: clarified in WO 2004/031165; cited from earlier work
[4] = isolated compounds at final 3-30 μM

In the case of `COc1ccc(C(=O)/C=C/c2ccc(O)cc2)c(O)c1CC=C(C)C` [4-hydroxyderricin], the “enhancement of 2-deoxy-[1,2-3H(N)]-glucose uptake” value (“enhancement” for short) [1, 4] is reported as “enhancement of 2-deoxy-[1,2-^3H(N)]-glucose uptake was found” and the “induction of biosynthesis of triglyceride (inducing action on differentiation into mature adipocytes)” value [2] is reported as “induction of biosynthesis of triglyceride was found”.

In the case of `CC(C)=CCc1c(O)ccc(C(=O)/C=C/c2ccc(O)cc2)c1O` [Isobavachalcone, isobavachalcone], the “enhancement” value [1, 4] is reported as “enhancement of 2-deoxy-[1,2-^3H(N)]-glucose uptake was found”, the “Inhibitory Ratio (%) of Aldose Reductase” value ([3]; 10 μM) is reported as 30.2% and the “Inhibitory Ratio (%) of Aldose Reductase” value ([3]; 20 μM) is reported as 47.4%. The “Inhibitory Ratio (%) of Aldose Reductase” value ([3]; 40 μM) was 60.1% and the “induction of biosynthesis of triglyceride (inducing action on differentiation into mature adipocytes)” value [2] was “induction of biosynthesis of triglyceride was found”.

In the case of `COc1ccc2c(c1CC=C(C)C)O[C@H](c1ccc(O)cc1)CC2=O` [Munduleaflavanone A, munduleaflavanone A], the “Inhibitory Ratio (%) of Aldose Reductase” value ([3]; 2.5 μM) is reported as 38.5%, the “Inhibitory Ratio (%) of Aldose Reductase” value ([3]; 5 μM) is reported as 54.6% and the “Inhibitory Ratio (%) of Aldose Reductase” value ([3]; 10 μM) is reported as 68.5%. For the same compound, the “Inhibitory Ratio (%) of Aldose Reductase” value ([3]; 20 μM) was 73.8% and the “induction of biosynthesis of triglyceride (inducing action on differentiation into mature adipocytes)” value [2] was “induction of biosynthesis of triglyceride was found”.

In the case of `CC(C)=CCC/C(C)=C/Cc1c(O)ccc2c1O[C@H](c1ccc(O)cc1)CC2=O` [Prostratol F, prostratol F], the “Inhibitory Ratio (%) of Aldose Reductase” value ([3]; 2.5 μM) is reported as 27.4%, the “Inhibitory Ratio (%) of Aldose Reductase” value ([3]; 5 μM) is reported as 46.3% and the “Inhibitory Ratio (%) of Aldose Reductase” value ([3]; 10 μM) is reported as 57.1%. For the same compound, the “Inhibitory Ratio (%) of Aldose Reductase” value ([3]; 20 μM) was 61.4% and the “induction of biosynthesis of triglyceride (inducing action on differentiation into mature adipocytes)” value [2] was “induction of biosynthesis of triglyceride was found”.

For `CC12CCC(O)C(C)(C)C1Cc1c(O)ccc(C(=O)/C=C/c3ccc(O)cc3)c1O2` (stereo not shown) [TB1], the “inhibitory actions for aldose reductase” value (aldose reductase) is given as “inhibitory actions for aldose reductase are found” and the “induction of biosynthesis of triglyceride (inducing action on differentiation into mature adipocytes)” value [2] is given as “induction of biosynthesis of triglyceride was found”.

For `CC(C)=CCCC1(C)Oc2c(C(=O)/C=C/c3ccc(O)cc3)ccc(O)c2CC1O` (stereo not shown) [TB2], the “inhibitory actions for aldose reductase” value (aldose reductase) is listed as “inhibitory actions for aldose reductase are found” and the “induction of biosynthesis of triglyceride (inducing action on differentiation into mature adipocytes)” value [2] is listed as “induction of biosynthesis of triglyceride was found”.

In the case of bavachromanol, the “Inhibitory Ratio (%) of Aldose Reductase” value ([3]; 2.5 μM) is reported as 42.1%, the “Inhibitory Ratio (%) of Aldose Reductase” value ([3]; 5 μM) is reported as 58.2% and the “Inhibitory Ratio (%) of Aldose Reductase” value ([3]; 10 μM) is reported as 70.5%. For the same compound, the “Inhibitory Ratio (%) of Aldose Reductase” value ([3]; 20 μM) was 80.1%.

In the case of “insulin: insulin (manufactured by TAKARA BIO INC.), positive control [reference compound]”, the “enhancement” value [1, 4] is reported as “enhancement of 2-deoxy-[1,2-^3H(N)]-glucose uptake was found”, the “enhancement” value ([1]; root extracts (Example 4) at final 0.022-0.2%) is reported as “enhancement of 2-deoxy-[1,2-^3H(N)]-glucose uptake was found” and the “induction of triglyceride biosynthesis (activity of inducing differentiation into adipocytes)” value ([2]; leaf and stem extracts (Example 3) at final 0.011-0.2%, insulin positive control, compared to dimethyl sulfoxide group) is reported as “induction of triglyceride biosynthesis could be also confirmed”.

In the case of xanthoangelol H, the “enhancement” value [1, 4] is reported as “enhancement of 2-deoxy-[1,2-^3H(N)]-glucose uptake was found”, the “Inhibitory Ratio (%) of Aldose Reductase” value ([3]; 2.5 μM) is reported as 40.4% and the “Inhibitory Ratio (%) of Aldose Reductase” value ([3]; 5 μM) is reported as 57.8%. For the same compound, the “Inhibitory Ratio (%) of Aldose Reductase” value ([3]; 10 μM) was 72.2%, the “Inhibitory Ratio (%) of Aldose Reductase” value ([3]; 20 μM) was 80.8% and the “induction of biosynthesis of triglyceride (inducing action on differentiation into mature adipocytes)” value [2] was “induction of biosynthesis of triglyceride was found”.
